Values of other authors as cited in article PMC7309225, “Synthesis, Biodistribution, and Radiation Dosimetry of a Novel mGluR5 Radioligand: ^18F-AZD9272” (ACS Chemical Neuroscience, 2020).
Like-named read-outs stand apart in the source and are kept apart here.

Legend:
mGluR5 = system: mGluR5; set-up: method as in PMID 29608920; conditions: 2TC, cited from earlier work
[1] = system: monoamine oxidase-B (MAO-B); set-up: method as in PMID 23541825; conditions: human brain stem, thalamus, amygdala, cerebellum, and ventral striatum; cited from earlier work

N#Cc1cc(F)cc(-c2nc(-c3ccc(F)cn3)no2)c1 [^11C-AZD9272]
VT (mGluR5; occipital cortex): 6.5 mL/cm^3
VT (mGluR5; ventral striatum): 18.0 mL/cm^3
MAO-B component of binding [1]: 90–95%
